{"source": "ChEMBL document CHEMBL5608246", "about": "“Membrane-Targeting Amphiphilic Honokiol Derivatives Containing an Oxazole Moiety as Potential Antibacterials against Methicillin-Resistant Staphylococcus aureus” (J Med Chem, 2024)", "key": {"Staphylococcus aureus [1]": {"tested_on": "Staphylococcus aureus", "assay": "Bactericidal activity against Staphylococcus aureus ATCC 29213 at 8 times MIC within 8 hrs by time kill assay", "assay_type": "functional, organism-based"}, "[2]": {"assay": "Toxicity in Kunming mouse skin abscess model infected with methicillin resistant Staphylococcus aureus assessed as spleen damage at 5 mg/kg, sc measured after 2 hrs by H and E staining based assay", "assay_type": "organism-based", "conditions": "in vivo"}, "Staphylococcus aureus [3]": {"tested_on": "Staphylococcus aureus", "assay": "Antibacterial activity against methicillin resistant Staphylococcus aureus 20 infected in Kunming mouse skin abscess model assessed as reduction in IL-6 level at 5 mg/kg, sc measured after 2 hrs by ELISA", "assay_type": "functional, organism-based"}, "[4]": {"assay": "Toxicity in Kunming mouse skin abscess model infected with methicillin resistant Staphylococcus aureus assessed as lungs damage at 5 mg/kg, sc measured after 2 hrs by H and E staining based assay", "assay_type": "organism-based", "conditions": "in vivo"}, "Staphylococcus aureus [5]": {"tested_on": "Staphylococcus aureus", "assay": "Antibacterial activity against methicillin resistant Staphylococcus aureus 20 infected in Kunming mouse skin abscess model assessed as reduction in inflammatory cells in infection sites at 5 mg/kg, sc measured after 2 hrs", "assay_type": "functional, organism-based"}, "[6]": {"assay": "Toxicity in Kunming mouse skin abscess model infected with methicillin resistant Staphylococcus aureus assessed as kidneys damage at 5 mg/kg, sc measured after 2 hrs by H and E staining based assay", "assay_type": "organism-based", "conditions": "in vivo"}, "Staphylococcus aureus [7]": {"tested_on": "Staphylococcus aureus", "assay": "Antibacterial activity against methicillin resistant Staphylococcus aureus 20 infected in Kunming mouse skin abscess model assessed as reduction in TNF-alpha level at 5 mg/kg, sc measured after 2 hrs by ELISA", "assay_type": "functional, organism-based"}, "[8]": {"assay": "Toxicity in Kunming mouse skin abscess model infected with methicillin resistant Staphylococcus aureus assessed as heart damage at 5 mg/kg, sc measured after 2 hrs by H and E staining based assay", "assay_type": "organism-based", "conditions": "in vivo"}, "[9]": {"assay": "Toxicity in Kunming mouse skin abscess model infected with methicillin resistant Staphylococcus aureus assessed as liver damage at 5 mg/kg, sc measured after 2 hrs by H and E staining based assay", "assay_type": "organism-based", "conditions": "in vivo"}, "Staphylococcus aureus [10]": {"tested_on": "Staphylococcus aureus", "assay": "Antibacterial activity against methicillin resistant Staphylococcus aureus 20 infected in Kunming mouse skin abscess model assessed as reduction in bacterial load at 5 mg/kg, sc measured after 2 hrs", "assay_type": "functional", "design": "scale not given: the % may be the effect or the level left"}}, "note": "Activity calls are given as the source filed them. The rule behind the calls is not given here."}
{"smiles": "CN[C@H](CC(C)C)C(=O)N[C@H]1C(=O)N[C@@H](CC(N)=O)C(=O)N[C@H]2C(=O)N[C@H]3C(=O)N[C@H](C(=O)N[C@H](C(=O)O)c4cc(O)cc(O)c4-c4cc3ccc4O)[C@H](O)c3ccc(c(Cl)c3)Oc3cc2cc(c3O[C@@H]2O[C@H](CO)[C@@H](O)[C@H](O)[C@H]2O[C@H]2C[C@](C)(N)[C@H](O)[C@H](C)O2)Oc2ccc(cc2Cl)[C@H]1O", "note": "[VANCOMYCIN]", "values": [{"measurement": "Activity", "setting": "Staphylococcus aureus [1]", "value": "inactive"}, {"measurement": "Activity", "setting": "[2]", "value": "Non-Toxic"}, {"measurement": "Activity", "setting": "Staphylococcus aureus [3]", "value": "Active"}, {"measurement": "Activity", "setting": "[4]", "value": "Non-Toxic"}, {"measurement": "Activity", "setting": "Staphylococcus aureus [5]", "value": "Active"}, {"measurement": "Activity", "setting": "[6]", "value": "Non-Toxic"}, {"measurement": "Activity", "setting": "Staphylococcus aureus [7]", "value": "Active"}, {"measurement": "Activity", "setting": "[8]", "value": "Non-Toxic"}, {"measurement": "Activity", "setting": "[9]", "value": "Non-Toxic"}, {"measurement": "Activity", "setting": "Staphylococcus aureus [10]", "value": 95.62, "unit": "%"}]}
